The values below are quoted from earlier work in patent US20090285877A1, “Percutaneous absorption preparation containing palonosetron” (HISAMITSU PHARMACEUTICAL CO., INC.,, priority 2008, published 2009).

This series deals with T1, 5-HT3 receptor (Homo sapiens, UniProt P46098).
T1 sequence (P46098 24-478): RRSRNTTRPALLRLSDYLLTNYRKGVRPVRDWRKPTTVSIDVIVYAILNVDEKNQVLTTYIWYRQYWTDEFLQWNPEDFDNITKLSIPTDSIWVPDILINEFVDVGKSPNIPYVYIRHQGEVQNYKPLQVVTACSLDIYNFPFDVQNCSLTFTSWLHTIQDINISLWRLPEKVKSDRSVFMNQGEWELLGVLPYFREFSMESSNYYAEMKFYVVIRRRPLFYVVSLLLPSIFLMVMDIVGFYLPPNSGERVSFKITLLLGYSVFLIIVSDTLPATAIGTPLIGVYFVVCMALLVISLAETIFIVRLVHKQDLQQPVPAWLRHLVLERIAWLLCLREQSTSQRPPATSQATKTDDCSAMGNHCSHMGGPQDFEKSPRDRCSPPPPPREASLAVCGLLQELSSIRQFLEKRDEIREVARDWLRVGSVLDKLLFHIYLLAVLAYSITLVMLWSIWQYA

In the case of `Cl.O=C1c2cccc3c2[C@H](CCC3)CN1[C@@H]1CN2CCC1CC2` [Palonosetron hydrochloride, (3aS)-2-[(S)-1-azabicyclo[2.2.2]oct-3-yl]-2,3,3a,4,5,6-hexahydro-1-oxo-1H-1Hbenz[de]isoquinoline hydrochloride], the “binding affinity for 5-HT3 receptor” value is “high binding affinity”.
